In the NIST ThermoML archive (doi:10.1016/j.jct.2016.09.038):
± gives the expanded uncertainty stated by the source.

Assays:
[1] = Molar enthalpy of transition or fusion; conditions: Crystal; DSC
[2] = Crystal; DTA

- Molar enthalpy of transition or fusion [1]: 9.05 ± 0.263 kcal/mol
- Normal melting temperature [2]: 160.66 ± 1.1 °C
Structure (SMILES): CC(C)(C)[C@H](O)[C@H](Cc1ccc(Cl)cc1)n1cncn1 [2S,3S-Paclobutrazol]
